From patent publication US20250367173A1, “ECTONUCLEOTIDE PYROPHOSPHATASE-PHOSPHODIESTERASE-1 INHIBITORS AND PHARMACEUTICAL COMPOSITIONS COMPRISING THE SAME” (LigaChem Biosciences Inc., priority 2022, published 2025)

Experiments:
ENPP-1 [1] = biological target: T1, ENPP-1 (Homo sapiens, UniProt P22413); assay: ENPP-1 enzyme assay with cGAMP substrate; type: biochemical; conditions: 200 pM ENPP-1, 10 μM substrate 2′3′-cGAMP, pH 7.4, 37° C., 30 minutes, Transcreener AMP2/GMP2 kit; average IC50
T1 construct: purchased Biovendor RD172124100
T1 sequence (P22413 1-925): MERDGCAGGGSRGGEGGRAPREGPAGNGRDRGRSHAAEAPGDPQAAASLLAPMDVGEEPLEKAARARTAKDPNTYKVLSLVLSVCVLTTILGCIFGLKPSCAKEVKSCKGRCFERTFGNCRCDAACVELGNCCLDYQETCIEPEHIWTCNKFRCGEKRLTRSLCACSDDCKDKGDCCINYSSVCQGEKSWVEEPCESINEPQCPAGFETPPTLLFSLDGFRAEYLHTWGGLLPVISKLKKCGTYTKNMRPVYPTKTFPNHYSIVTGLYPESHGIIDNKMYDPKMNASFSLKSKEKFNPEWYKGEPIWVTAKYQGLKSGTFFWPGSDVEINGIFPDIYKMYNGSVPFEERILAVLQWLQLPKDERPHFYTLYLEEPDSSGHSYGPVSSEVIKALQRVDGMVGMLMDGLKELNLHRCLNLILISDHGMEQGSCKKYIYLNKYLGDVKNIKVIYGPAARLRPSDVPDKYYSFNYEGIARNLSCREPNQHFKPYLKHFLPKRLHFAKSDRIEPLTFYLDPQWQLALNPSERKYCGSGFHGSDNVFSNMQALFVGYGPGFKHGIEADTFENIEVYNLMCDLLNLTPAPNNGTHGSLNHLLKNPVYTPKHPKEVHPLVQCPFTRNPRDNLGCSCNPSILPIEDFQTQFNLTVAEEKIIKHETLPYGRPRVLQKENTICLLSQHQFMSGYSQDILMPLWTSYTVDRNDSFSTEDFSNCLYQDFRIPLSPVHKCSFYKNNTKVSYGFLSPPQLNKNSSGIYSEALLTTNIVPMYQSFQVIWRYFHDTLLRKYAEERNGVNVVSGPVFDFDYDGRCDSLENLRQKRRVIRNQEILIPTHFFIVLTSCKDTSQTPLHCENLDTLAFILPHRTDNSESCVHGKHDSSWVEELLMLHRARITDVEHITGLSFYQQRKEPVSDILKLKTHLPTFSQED
Experimental: 2′3′-cGAMP is a natural substrate specifically hydrolyzed by ENPP-1, and produces 5′-adenosine monophosphate (AMP) and 5′-guanosine monophosphate (GMP). AMP and GMP produced from the reaction are monitored for ENPP-1 enzyme activity through an AMP^2/GMP^2 ENPP-1 Assay kit (Bellbrook Labs, catalog number 3015).
First, the reaction mixture contains 25 mM Tris-HCl (pH 7.4), 5 mM MgCl2, 0.01% Brij-35, and 1% DMSO. Serially diluted ENPP-1 inhibitors (test compound concentrations ranging from 10 μM to 0.5 nM) are reacted with 200 pM ENPP-1 (Biovendor, catalog number RD172124100) and 10 μM substrate 2′3′-cGAMP at 37° C. for 30 minutes. All assays include a DMSO control without ENPP-1 inhibitor that provides maximal AMP and GMP production. After 30 minutes of this reaction, AMP and GMP production is detected as a measure of ENPP-1 enzymatic activity using the Transcreener® AMP^2/GMP^2 ENPP-1 Assay kit. The detection reagent is a reagent containing 16 nM AMP^2/GMP^2 Antibody-Tb, 25 mM Tris-HCl and 60.1 nM AMP/GMP HiLyte647 Tracer, which is added by 5 μl, mixed well, and incubated at 25° C. for 2 hours.
(§1) The […] signal is measured using a SPARK Cyto plate reader (Tecan). Inhibition (%) is calculated using the following formula: (Max 615:665 ratio-615:665 ratio)/Max 615:665 ratio×100%. % residual ENPP-1 enzyme activity versus IC50 values for ENPP-1 inhibitor concentrations were determined by fitting inhibition curves using the 4-parameter method of GraphPad Prism® software [GraphPad version 9.3.1 for Windows, GraphPad Software, La Jolla California USA, www.graphpad.com].

ENPP-1 [2] = biological target: T1, ENPP-1; assay: ENPP-1 enzyme assay with pNP-TMP substrate; type: biochemical; conditions: 12.5 ng ENPP-1, 720 μM substrate pNP-TMP, pH 9.0, 37° C., 60 minutes, absorbance 405 nm; average IC50
Experimental: In order to measure the ENPP-1 inhibitory activity of the compounds according to the present disclosure, the following tests were performed.
ENPP-1 hydrolyzes a variety of substrates, including phosphodiester bonds of nucleotides and nucleotide sugars and pyrophosphate bonds of nucleotides and nucleotide sugars. p-Nitrophenyl 5′-thymidine monophosphate (p-Nph-5′-TMP) is an artificial substrate for 5′-adenosine monophosphate (AMP), which is hydrolyzed by the human recombinant ENPP-1 enzyme. In the above reaction, ENPP-1 enzymatic activity is monitored through the formation of yellow p-nitrophenolate, which absorbs at 405 nm.
First, the reaction mixture contains 100 mM Tris-HCl (pH 9.0), 150 mM NaCl, […], and 1% DMSO. Serially diluted ENPP-1 inhibitors (test compound concentrations ranging from 10 μM to 0.5 nM) are reacted with 12.5 ng of ENPP-1 (Biovendor, catalog number RD172124100) and 720 μM substrate pNP-TMP at 37° C. for 60 minutes. All assays include a DMSO control without ENPP-1 inhibitor that gives maximum absorbance.
as §1, with “After 60 minutes of this reaction, the” for “The”, “an Epoch™ Microplate Spectrophotometer (BioTek Instruments Inc.).” for “a SPARK Cyto plate reader (Tecan).”, “Sample OD405 nm/Max OD405 nm×100%.” for “(Max 615:665 ratio-615:665 ratio)/Max 615:665 ratio×100%.”

Compound | IC50 (ENPP-1 [1]) [µM] | IC50 (ENPP-1 [2]) [µM]
COc1ccc2c(c1)c1ncccc1n2Cc1ccc(S(C)(=N)=O)cc1 (single isomer, unassigned) [Compound 10a, imino (4-((8-methoxy-5H-pyrido[3,2-b]indol-5-yl)methyl)phenyl)(methyl)-l6-sulfanone] | < 1 | < 1
COc1ccc2c(c1)c1ncccc1n2Cc1ccc(S(C)(=N)=O)cc1 (single isomer, unassigned) [Compound 10b, imino (4-((8-methoxy-5H-pyrido[3,2-b]indol-5-yl)methyl)phenyl)(methyl)-l6-sulfanone] | – | < 1
COc1cc2c3ncccc3n(Cc3ccc(S(C)(=N)=O)cc3)c2cc1F (single isomer, unassigned) [Compound 30a, (4-((7-fluoro-8-methoxy-5H-pyrido[3,2-b]indol-5-yl)methyl)phenyl)(imino)(methyl)-l6-sulfanone] | < 1 | < 1
COc1cc2c3ncccc3n(Cc3ccc(S(C)(=N)=O)cc3)c2cc1F (single isomer, unassigned) [Compound 30b, (4-((7-fluoro-8-methoxy-5H-pyrido[3,2-b]indol-5-yl)methyl)phenyl)(imino)(methyl)-l6-sulfanone] | – | < 1
COc1cc2c3ncccc3n(Cc3ccc(S(=N)(=O)C4CC4)cc3)c2cc1F (single isomer, unassigned) [Compound 56a, cyclopropyl (4-((7-fluoro-8-methoxy-5H-pyrido[3,2-b]indol-5-yl)methyl)phenyl) (imino)-l6-sulfanone] | – | < 1
COc1cc2c3ncccc3n(Cc3ccc(S(=N)(=O)C4CC4)cc3)c2cc1F (single isomer, unassigned) [Compound 56b, cyclopropyl (4-((7-fluoro-8-methoxy-5H-pyrido[3,2-b]indol-5-yl)methyl)phenyl) (imino)-l6-sulfanone] | < 1 | –
CS(=N)(=O)c1ccc(Cn2c3ccccc3c3ccncc32)cc1 (stereo not drawn) [Compound 1, (4-((9H-pyrido[3,4-b]indol-9-yl)methyl)phenyl)(imino)(methyl)-l6-sulfanone] | 1 to 10 | < 1
COc1ccc2c(c1)c1ccncc1n2Cc1ccc(S(N)(=O)=O)cc1 [Compound 2, 4-((6-methoxy-9H-pyrido[3,4-b]indol-9-yl)methyl)benzenesulfonamide] | < 1 | < 1
COc1ccc2c(c1)c1ccncc1n2Cc1ccc(S(C)(=N)=O)cc1 (stereo not drawn) [Compound 3, imino (4-((6-methoxy-9H-pyrido[3,4-b]indol-9-yl)methyl)phenyl)(methyl)-l6-sulfanone] | < 1 | < 1
COc1ccc2c(c1)c1cnccc1n2Cc1ccc(S(N)(=O)=O)cc1 [Compound 4, 4-((8-methoxy-5H-pyrido[4,3-b]indol-5-yl)methyl)benzenesulfonamide] | < 1 | < 1
COc1ccc2c(c1)c1ncccc1n2Cc1ccc(S(N)(=O)=O)cc1 [Compound 5, 4-((8-methoxy-5H-pyrido[3,2-b]indol-5-yl)methyl)benzenesulfonamide] | < 1 | < 1
COc1ccc2c(c1)c1ncccc1n2CC1CCN(S(N)(=O)=O)CC1 [Compound 6, 4-((8-methoxy-5H-pyrido[3,2-b]indol-5-yl)methyl) piperidine-1-sulfonamide] | < 1 | < 1
CNS(=O)(=O)c1ccc(Cn2c3ccc(OC)cc3c3ncccc32)cc1 [Compound 7, 4-((8-methoxy-5H-pyrido[3,2-b]indol-5-yl)methyl)-N-methylbenzenesulfonamide] | > 10 | 1 to 10
COc1ccc2c(c1)c1ncccc1n2Cc1ccc(NS(N)(=O)=O)cc1 [Compound 8, N-(4-((8-methoxy-5H-pyrido[3,2-b]indol-5-yl)methyl)phenyl) sulfamide] | < 1 | < 1
COc1ccc2c(c1)c1ncccc1n2CCc1ccc(S(N)(=O)=O)cc1 [Compound 9, 4-(2-(8-methoxy-5H-pyrido[3,2-b]indol-5-yl)ethyl)benzenesulfonamide] | > 10 | < 1
CCS(=N)(=O)c1ccc(Cn2c3ccc(OC)cc3c3ncccc32)cc1 (stereo not drawn) [Compound 11, ethyl (imino) (4-((8-methoxy-5H-pyrido[3,2-b]indol-5-yl)methyl)phenyl)-l6-sulfanone] | < 1 | < 1
COc1ccc2c(c1)c1ncccc1n2Cc1ccc(S(=N)(=O)Cc2ccccc2)cc1 (stereo not drawn) [Compound 12, benzyl(imino)(4-((8-methoxy-5H-pyrido[3,2-b]indol-5-yl)methyl)phenyl)-l6-sulfanone] | < 1 | < 1
COc1ccc2c(c1)c1c(n2Cc2ccc(S(N)(=O)=O)cc2)CNC(C)C1 (stereo not drawn) [Compound 33, 4-((6-methoxy-3-methyl-1,2,3,4-tetrahydro-9H-pyrido[3,4-b]indol-9-yl)methyl)benzene sulfonamide] | – | > 10
COc1ccc2c(c1)c1c(n2Cc2cccc(S(N)(=O)=O)c2)CCCN1 [Compound 39, 3-((8-methoxy-1,2,3,4-tetrahydro-5H-pyrido[3,2-b]indol-5-yl)methyl)benzenesulfonamide] | – | > 10
Cc1ccc2c(c1)c1c(n2Cc2ccc(S(N)(=O)=O)cc2)CCCN1 [Compound 40, 4-((8-methyl-1,2,3,4-tetrahydro-5H-pyrido[3,2-b]indol-5-yl)methyl)benzenesulfonamide] | – | 1 to 10
COc1ccc2c(c1)c1cnncc1n2Cc1ccc(S(N)(=O)=O)cc1 [Compound 50, 4-((8-methoxy-5H-pyridazino[4,5-b]indol-5-yl)methyl)benzenesulfonamide] | – | 1 to 10
COc1ccc2c(c1F)c1ncccc1n2Cc1ccc(S(N)(=O)=O)cc1 [Compound 54, 4-((9-fluoro-8-methoxy-5H-pyrido[3,2-b]indol-5-yl)methyl)benzenesulfonamide] | < 1 | –
COc1ccc2c(c1)c1ncccc1n2Cc1ccc(S(C)(=N)=O)cc1C(F)(F)F (stereo not drawn) [Compound 55, imino (4-((8-methoxy-5H-pyrido[3,2-b]indol-5-yl)methyl)-3-(trifluoromethyl)phenyl)(methyl)-l6-sulfanone] | – | > 10
